Measurements reported in PMC5762859, “Distribution analysis of epertinib in brain metastasis of HER2-positive breast cancer by imaging mass spectrometry and prospect for antitumor activity” (Scientific Reports, 2018).
Where two headings read alike, the source gives them in different places.

Key:
[1] = Quantitative MALDI-IMS of drug in brain metastases of the breast cancer IVM (BR2, BR3); type: in vivo, mice; details: for concentration at 4 h / concentration at 8 h: female, BALB/cAJcl-nu/nu, mouse, tumor (brain metastasis) in brain sections, po, 50 mg/kg, IMS; for concentration at 4 h: 4 h after single oral 50 mg/kg; for concentration at 8 h: 8 h after single oral 50 mg/kg
Experimental: BTB integrity in the IVM was assessed by measuring the fluorescence intensity of Texas-Red® dextran in the metastatic regions or brain parenchyma. Metastatic regions were defined as cancer cell clusters with DAPI staining in the same brain section (Fig. 2E and Supplementary Fig. S2C).
(§1) All experimental protocols were approved by the Institutional Animal Care and Use Committee of Shionogi & Co., Ltd (Osaka, Japan) and performed in accordance with the Guidelines for Animal Experiments of Shionogi & Co., Ltd, which meet the ethical standards required by the law and the guidelines about the experimental animals in Japan. Nude mice (BALB/cAJcl-nu/nu, CLEA Japan) were used for in vivo studies. All mice were female and six to nine weeks old at the time of implantation. […] Plasma was separated by centrifugation at 3,000 rpm for 15 min at 4 °C and stored at −80 °C until analysis. After blood sampling, brain tissues were immediately excised, frozen on dry ice, and stored at −80 °C prior to sectioning.
In the experimental brain metastasis of breast cancer or lung cancer (IVM), a cell suspension containing 2.0 × 10^6 cells (BR2), 1.7 × 10^6 cells (BR3), or 4.0 × 10^5 cells (NCI-H1975-luc) was implanted into the left ventricle of anaesthetized mice (Supplementary Fig. S1). In the intracranial implantation mice model, the cell suspension containing 3.1 × 10^5 cells was implanted into the craniotomy region (2 mm to the left of the bregma and 1 mm anterior to the coronal suture). For measurement of bioluminescence, 0.2 mL of 10 mg/mL luciferin solution was injected intravenously into anesthetized mice via the tail vein and the photons emitted from tumor measured by IVIS Imaging System 200 (Caliper Life Sciences).
Frozen brain tissues were cut into 10-µm sections using a cryostat (Leica CM3050 S; Leica Microsystems Inc., Wetzlar, Germany) at −20 °C. Sections were thaw-mounted onto glass microscope slides (Superfrost; Thermo Fisher Scientific Inc.) and stored at −80 °C until use. […] Standard solutions were spotted onto the glass microscope slides at 1 µL.
Matrix-coated sections were analyzed using a linear ion trap mass spectrometer with a MALDI source (MALDI LTQ XL, Thermo Fisher Scientific Inc.) and a nitrogen laser (337 nm; 60 Hz). Laser energy and raster step size were set at 30 µJ and 100 µm, respectively. All compounds were detected in positive-ion mode using the product ion scans of their [M + H]^+ ions. […] Heme B was detected by MS3 (m/z 616 → 557 → 498) as a blood biomarker.
Spectral data were acquired using Xcalibur 2.0.7 software (Thermo Fisher Scientific Inc.) and the localization and concentration of all compounds in the brain sections were analyzed using Quantinetix 1.7.10 software (ImaBiotech, Loos, France). The fluorescence intensity of Texas-Red® dextran and immunostaining intensity of HER2 were analyzed using a BZ-X analyzer (Keyence). Statistical analyses were performed using SAS software (version 9.4).

[2] = Plasma concentration by LC-MS/MS in the breast cancer IVM; type: in vivo, mice; details: female, BALB/cAJcl-nu/nu, mouse, po, 50 mg/kg; for concentration at 4 h: 4 h after single oral 50 mg/kg; for concentration at 8 h: 8 h after single oral 50 mg/kg
Excerpt: as §1
(§2) The mixture was stirred for 10 min and centrifuged at 5,000 rpm for 5 min at 10 °C, and 1 µL of the supernatant was injected into the LC-MS/MS system. An ultra-HPLC system (Nexera LC-20A, Shimadzu Corp., Kyoto, Japan) with a triple quadrupole mass spectrometer (API 5000^TM, AB Sciex, Forester City, CA, USA) was used for LC/MS/MS analysis. The LC-MS/MS system was controlled by Analyst 1.4.2 (AB Sciex) software. Chromatographic separation was performed using a Cadenza CD-C18 HT column (50 × 2.0 mm i.d., 3 µm; Imtakt Corp., Kyoto, Japan).

EGFR = system: EGFR; set-up: method as in PMID 24837299; details: between 6 and 24 h after a single administration; cited from earlier work
[3] = Plasma concentration in the lung cancer IVM; type: in vivo, mice; details: female, BALB/cAJcl-nu/nu, mouse, 4 h after oral 100 mg/kg
Excerpt: as §1, §2

[4] = Plasma and brain pharmacokinetics after single oral administration in mice implanted intracranially with MDA-MB-361 cells; details: for concentration at 8 h / Tmax / concentration at 0.5 h / concentration at 1 h / concentration at 2 h / concentration at 4 h / concentration at 24 h / AUC(0-t) / Cmax: female, mouse, po; for AUC0–24 h, brain / Cmax, brain: single oral 20 mg/kg, mice
Excerpt: as §1, §2

[5] = set-up: method as in PMID 25434923; details: human, cited from earlier work
[6] = Plasma exposure after single oral administration in nude mice; type: in vivo; details: mouse, single oral 50 mg/kg, read-out: Plasma exposure (AUC0–24 h)
HER2 = system: HER2; set-up: method as in PMID 24837299; details: between 6 and 24 h after a single administration; cited from earlier work
P-glycoprotein (P-gp) = target: T1, P-glycoprotein (P-gp) (Homo sapiens, UniProt P08183); details: cited from earlier work
T1 construct: permeability and efflux ratio of epertinib across Caco-2 cell monolayers; endogenous in cells; host or cells: Caco-2

[7] = Quantitative MALDI-IMS of drug in brain metastases of the lung cancer IVM (NCI-H1975-luc); type: in vivo, mice; details: female, BALB/cAJcl-nu/nu, mouse, tumor (brain metastasis) in brain sections, 4 h after oral 100 mg/kg
Excerpt: as §1, with “After blood sampling, brain tissues were immediately excised, frozen on dry ice, and stored at −80 °C prior to sectioning.” left out
In the experimental brain metastasis of breast cancer or lung cancer (IVM), a cell suspension containing 2.0 × 10^6 cells (BR2), 1.7 × 10^6 cells (BR3), or 4.0 × 10^5 cells (NCI-H1975-luc) was implanted into the left ventricle of anaesthetized mice (Supplementary Fig. S1). […] For measurement of bioluminescence, 0.2 mL of 10 mg/mL luciferin solution was injected intravenously into anesthetized mice via the tail vein and the photons emitted from tumor measured by IVIS Imaging System 200 (Caliper Life Sciences). […]
Matrix-coated sections were analyzed using a linear ion trap mass spectrometer with a MALDI source (MALDI LTQ XL, Thermo Fisher Scientific Inc.) and a nitrogen laser (337 nm; 60 Hz). […] All compounds were detected in positive-ion mode using the product ion scans of their [M + H]^+ ions. […]

[8] = healthy volunteers, single oral 250 mg [14C]-lapatinib; cited from earlier work
[9] = BALB/cAJcl-nu/nu nude, brain, 20 mg/kg
[10] = BALB/cAJcl-nu/nu, brain, 20 mg/kg
[11] = BALB/cAJcl-nu/nu, plasma, 20 mg/kg

T1 sequence (P08183 whole entry): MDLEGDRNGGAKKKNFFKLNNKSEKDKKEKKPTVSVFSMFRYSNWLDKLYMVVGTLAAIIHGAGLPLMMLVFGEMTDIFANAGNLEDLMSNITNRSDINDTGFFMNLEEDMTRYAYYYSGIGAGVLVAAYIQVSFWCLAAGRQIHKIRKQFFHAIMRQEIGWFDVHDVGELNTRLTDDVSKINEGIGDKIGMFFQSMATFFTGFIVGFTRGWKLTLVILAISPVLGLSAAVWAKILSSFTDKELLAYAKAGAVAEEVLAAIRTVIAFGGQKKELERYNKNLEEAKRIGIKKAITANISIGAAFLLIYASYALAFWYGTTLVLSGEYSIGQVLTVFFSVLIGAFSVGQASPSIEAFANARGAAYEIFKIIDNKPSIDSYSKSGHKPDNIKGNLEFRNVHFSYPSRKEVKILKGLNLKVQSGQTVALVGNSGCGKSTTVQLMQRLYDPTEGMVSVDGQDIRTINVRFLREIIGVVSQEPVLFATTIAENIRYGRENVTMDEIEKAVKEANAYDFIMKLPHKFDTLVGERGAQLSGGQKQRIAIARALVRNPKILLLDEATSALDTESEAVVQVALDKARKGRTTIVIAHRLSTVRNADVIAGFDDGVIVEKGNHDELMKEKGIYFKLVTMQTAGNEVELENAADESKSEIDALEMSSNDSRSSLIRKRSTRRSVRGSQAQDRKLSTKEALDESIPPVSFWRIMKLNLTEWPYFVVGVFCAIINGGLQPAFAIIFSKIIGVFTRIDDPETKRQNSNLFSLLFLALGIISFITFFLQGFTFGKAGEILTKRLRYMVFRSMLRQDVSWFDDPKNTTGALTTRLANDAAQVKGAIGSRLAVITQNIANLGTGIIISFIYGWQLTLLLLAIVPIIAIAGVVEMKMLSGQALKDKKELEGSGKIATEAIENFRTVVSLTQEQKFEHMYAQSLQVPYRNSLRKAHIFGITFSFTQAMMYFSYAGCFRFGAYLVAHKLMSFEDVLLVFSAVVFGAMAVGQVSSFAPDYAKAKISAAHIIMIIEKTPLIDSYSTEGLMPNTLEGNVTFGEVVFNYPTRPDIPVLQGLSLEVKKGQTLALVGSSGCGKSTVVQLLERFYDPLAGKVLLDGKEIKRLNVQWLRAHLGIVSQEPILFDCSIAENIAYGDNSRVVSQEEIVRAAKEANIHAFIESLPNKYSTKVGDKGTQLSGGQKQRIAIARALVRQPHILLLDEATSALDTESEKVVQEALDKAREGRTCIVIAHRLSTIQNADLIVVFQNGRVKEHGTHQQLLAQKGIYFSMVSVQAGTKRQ

SMILES	concentration at 4 h ([1]; BR2 IVM)	concentration at 4 h ([1]; BR3 IVM)	concentration at 8 h ([1]; BR3 IVM)	concentration at 4 h ([2]; BR2 IVM)	concentration at 4 h ([2]; BR3 IVM)	concentration at 8 h ([2]; BR3 IVM)	Inhibitory activity on EGFR phosphorylation at 24 h (EGFR)	concentration at 4 h [3]	concentration at 8 h [4, 9]	Tmax [4, 10]	concentration at 0.5 h [4, 10]	concentration at 1 h [4, 10]	concentration at 2 h [4, 10]	concentration at 4 h [4, 10]	concentration at 24 h [4, 10]	AUC(0-t) [4, 11]	Cmax [4, 11]	Tmax [4, 11]	concentration at 1 h [4, 11]	concentration at 2 h [4, 11]	other results
CS(=O)(=O)CCNCc1ccc(-c2ccc3ncnc(Nc4ccc(OCc5cccc(F)c5)c(Cl)c4)c3c2)o1 [Lapatinib, N-{3-chloro-4-[(3-fluorobenzyl)oxy]phenyl}-6-[5-({[2-(methylsulfonyl)ethyl]amino}methyl)-2-furyl]-4-quinazolinamine, reference compound]	160 ng/g	200 ng/g	190 ng/g	6.69 ± 1.31 µg/mL	2.14 ± 0.22 µg/mL	0.63 µg/mL	largely disappeared	9.36 ± 1.78 µg/mL	5.8 ng/g	4 h	11.8 ng/g	15.7 ng/g	10 ng/g	17 ng/g	0.4 ng/g	4.11 µg·h/mL	0.985 µg/mL	0.5 h	0.763 µg/mL	0.413 µg/mL	concentration at 0.5 h [4, 11]: 0.985 µg/mL; concentration at 4 h [4, 11]: 0.461 µg/mL; concentration at 8 h [4, 11]: 0.0996 µg/mL; concentration at 24 h [4, 11]: 0.0054 µg/mL; AUC0–24 h, brain [4]: 144 ng·h/g; Cmax, brain [4]: 17 ng/g; Plasma exposure (AUC0–24 h) ([5]; effective dose 1250 mg/day): 27.3 µg·h/mL; AUC(0-t) [6]: 34.1 µg·h/mL; Inhibitory activity on HER2 phosphorylation at 24 h (HER2): largely disappeared; P-gp substrate (P-glycoprotein (P-gp)): substrates; concentration at 4 h [7]: 7080 ng/g; Mean plasma concentration of lapatinib at Cmax [8]: 0.33 µg/mL
CC#CC(=NOCC1COCCN1)c1ccc2ncnc(Nc3ccc(OCc4cccc(F)c4)c(Cl)c3)c2c1 (centres unmarked) [Epertinib]	2930 ng/g	2700 ng/g	2710 ng/g	1.44 ± 0.05 µg/mL	1.3 ± 0.12 µg/mL	0.92 ± 0.3 µg/mL	persisted at 24 h	2.76 ± 0.66 µg/mL	23.8 ng/g	4 h	10.2 ng/g	12.8 ng/g	23 ng/g	36.3 ng/g	1.7 ng/g	1.26 µg·h/mL	0.145 µg/mL	2 h	0.113 µg/mL	0.145 µg/mL	Concentration measured in brain metastases of the IVM with breast cancer ([1]; breast cancer IVM): 5.2 µM; Tumor concentration of epertinib relative to that of lapatinib ([1]; breast cancer IVMs, 4 h after administration): > 10 times; Brain concentration of epertinib relative to that of lapatinib ([4]; 4 h after oral administration, 20 mg/kg): approximately twice; concentration at 0.5 h ([4]; BALB/cAJcl-nu/nu, in vivo, 20 mg/kg): 0.0998 µg/mL; concentration at 4 h [4, 11]: 0.115 µg/mL; concentration at 8 h [4, 11]: 0.0547 µg/mL; concentration at 24 h [4, 11]: 0.0021 µg/mL; AUC0–24 h, brain [4]: 409 ng·h/g; Cmax, brain [4]: 36 ng/g; Plasma exposure (AUC0–24 h) ([5]; effective dose 800 mg/day): 9.17 µg·h/mL; AUC(0-t) [6]: 9.98 µg·h/mL; Inhibitory activity on HER2 phosphorylation at 24 h (HER2): persisted at 24 h; concentration at 4 h [7]: 6700 ng/g
